Experimental data: patent publication EP3732162B1, “NITROALKENE NON STEROIDAL ANTI-INFLAMMATORY DRUGS (NA-NSAIDS) AND METHODS OF TREATING INFLAMMATION RELATED CONDITIONS” (Institut Pasteur De Montevideo, priority 2017, dated 2019)

Columns and labels:
[1] = Adduct formation with beta mercaptoethanol (BME), followed spectrophotometrically
Description: While not wishing to be bound by theory, during inflammation, reversible reactions with nucleophilic molecules such as NF-κB and the inflammasomes have shown to modify inflammatory response. One method to identify reactions with nucleophilic targets at physiological pH is by screening with beta mercaptoethanol ("BME"). […] Thus, the nitroalkene NSAIDs within the scope of the present invention react with nucleophilic molecules such as NF-κB and the inflammasomes to modify inflammatory response.

NF-κB = assay: IL-1β secretion by ELISA in PMA-differentiated macrophages, compound given together with LPS (1st signal); type: cell-based
Method: (§1) In order to compare benzoic acid (BA) and nitroalkene benzoic acid (BANA) over NF-κB and inflammasome function in macrophages, TUP-1 cells were differentiated into macrophages with PMA (200 nM, 48 h). Cells were then stimulated with LPS (250ng/mL) and with ATP (5mM, 45 minutes). Together with LPS (1st signal, FIG. 6) or ATP (2nd signal, FIG. 7), cells were treated with Benzoic acid (30 µM) or BANA (30 µM). Supernatants were collected and IL-1β secretion was measured by ELISA. […] Thus, BANA inhibits both the generation of the inflammasome, and inhibits the inflammasome itself.
(§2) Further exemplary studies were performed with Flufenamate (FluFE) and nitroalkene flufenamate (FluFENA). In order to study the effect of Flufenamate (FluFE) and FluFENA over NF-κB and inflammasome function in macrophages, THP-1 cells were differentiated into macrophages with PMA (200 nM, 48 h). Cells were stimulated with LPS (250ng/mL) and then with ATP (5mM, 45 minutes). Together with LPS (1st signal, FIG. 8) or ATP (2nd signal, FIG. 9), cells were treated with FluFE (5 µM) or FluFENA (5 µM). Supernatant were collected and IL-1β secretion was measured by ELISA. Cell viability was assessed by the MTT assay.
(§3) To study the effect of ibuprofen and IBUNA over NF-xB and inflammasome function in macrophages, TUP-1 cells were differentiated into macrophages with PMA (200 nM, 48 h). Cells were stimulated with LPS (250ng/mL) and then with ATP (5mM, 45 minutes). Together with LPS (1st signal, FIG. 10) or ATP (2nd signal, FIG. 11), cells were treated with Ibuprofen (20 µM) or IBUNA (20 µM). Supernatant were collected and IL-1β secretion was measured by ELISA.

inflammasome = assay: IL-1β secretion by ELISA in PMA-differentiated macrophages, compound given together with ATP (2nd signal); type: cell-based
Method: as §1, §2, §3

IL-1β = assay: In vivo model of peritonitis (LPS-induced inflammatory response), IL-1β by ELISA; conditions: mice, 50 mg/kg IP 1 hour before LPS 10 mg/kg IP for 2 hours; as opposed to BA; FIG. 12
Method: Mice were treated with BANA, Benzoic Acid (50 mg/kg, IP) or the vehicle (100 mM Phosphate buffer 10% DMSO) for 1 hour. Then were injected with LPS (10 mg/kg, IP) or PBS for 2 hours. Mice were collected for peritoneal wash and blood samples were extracted. The peritoneal wash and plasma were stored to measure IL-1β by ELISA. The values are show as mean ± SD from three mice per condition and we have used the statistic test one-way ANOVA with Bonferroni.

For `CC(C)Cc1ccc(C(C)C(=O)O)cc1/C=C/[N+](=O)[O-]` (stereo not shown) [IBUNA, (E)-2-(4-isobutyl-3-(2-nitrovinyl)phenyl)propanoic acid], the “nitroalkene NSAID adduction with BME (absorbance)” value (“nitroalkene NSAID adduction” below) ([1]; 50 µM IBUNA with 250 µM BME, 100 mM phosphate buffer pH 7.4, FIG. 2) was “absorbance increase”, the IL-1β secretion (NF-κB; TUP-1 cells differentiated with PMA, 20 µM together with LPS 250ng/mL (1st signal), compared with Ibuprofen 20 µM, FIG. 10) was “unexpected superiority” and the IL-1β secretion (inflammasome; TUP-1 cells differentiated with PMA, 20 µM together with ATP 5mM 45 minutes (2nd signal), compared with Ibuprofen 20 µM, FIG. 11) was “unexpected superiority”.

With `CC(=O)Nc1ccc(O)c(/C=C/[N+](=O)[O-])c1` [PARANA, (E)-N-(4-hydroxy-3-(2-nitrovinyl)phenyl)acetamide] the “nitroalkene NSAID adduction” value ([1]; 30 µM PARANA with 30 µM BME, 100mM phosphate buffer pH 7.4, FIG. 1) was “absorbance increase”.

For `O=C(O)c1ccc(/C=C/[N+](=O)[O-])cc1` [BANA, (E)-4-(2-nitrovinyl)benzoic acid], the “nitroalkene NSAID adduction” value ([1]; 10 µM BANA with 30 µM BME, 100 mM phosphate buffer pH 7.4, FIG. 4) was “absorbance increase”, the IL-1β secretion (NF-κB; TUP-1 cells differentiated with PMA, 30 µM together with LPS 250ng/mL (1st signal), then ATP 5mM 45 minutes, vs Benzoic acid 30 µM, FIG. 6) was “inhibition of IL-1β secretion” and the “level of pro-inflammatory cytokine IL-1β secretion in blood plasma” value (IL-1β) was “marked decrease”. The “level of pro-inflammatory cytokine IL-1β secretion in peritoneal wash” value (IL-1β) was “marked decrease” and the IL-1β secretion (inflammasome; TUP-1 cells differentiated with PMA, LPS 250ng/mL, then 30 µM together with ATP 5mM 45 minutes (2nd signal), vs Benzoic acid 30 µM, FIG. 7) was “inhibition of IL-1β secretion”.

For `O=[N+]([O-])/C=C/c1ccc(O)cc1` [PheNA, (E)-4-(2-nitrovinyl)phenol], the “nitroalkene NSAID adduction” value ([1]; 50 µM PheNA with 500 µM BME, 100 mM phosphate buffer pH 7.4, FIG. 5) was “absorbance increase”.

For `O=C(O)c1cc(/C=C/[N+](=O)[O-])ccc1Nc1cccc(C(F)(F)F)c1` [FluFENA, (E)-5-(2-nitrovinyl)-2-((3-(trifluoromethyl)phenyl)amino)benzoic acid], the “nitroalkene NSAID adduction” value ([1]; 12.5 µM FluFENA with 125 µM BME, 100 mM phosphate buffer pH 7.4, FIG. 3) was “absorbance increase”, the IL-1β secretion (NF-κB; THP-1 cells differentiated with PMA, 5 µM together with LPS 250ng/mL (1st signal), compared with FluFE 5 µM, FIG. 8) was “unexpected advantage” and the IL-1β secretion (inflammasome; THP-1 cells differentiated with PMA, 5 µM together with ATP 5mM 45 minutes (2nd signal), compared with FluFE 5 µM, FIG. 9) was “unexpected advantage”.
